According to ChEMBL document CHEMBL1955798, “Novel coumarins and 2-thioxo-coumarins as inhibitors of the tumor-associated carbonic anhydrases IX and XII” (Bioorg Med Chem, 2012):

What was measured:
Carbonic anhydrase 2 = Carbonic anhydrase 2 (Homo sapiens, UniProt P00918); experiment: Inhibition of human carbonic anhydrase 2 after 6 hrs by stop-flow CO2 hydration assay
Carbonic anhydrase 9 = Carbonic anhydrase 9 (Homo sapiens, UniProt Q16790); experiment: Inhibition of human carbonic anhydrase 9 after 6 hrs by stop-flow CO2 hydration assay
Carbonic anhydrase 1 = Carbonic anhydrase 1 (Homo sapiens, UniProt P00915); experiment: Inhibition of human carbonic anhydrase 1 after 6 hrs by stop-flow CO2 hydration assay
Sequence of Carbonic anhydrase 1 (P00915 whole entry): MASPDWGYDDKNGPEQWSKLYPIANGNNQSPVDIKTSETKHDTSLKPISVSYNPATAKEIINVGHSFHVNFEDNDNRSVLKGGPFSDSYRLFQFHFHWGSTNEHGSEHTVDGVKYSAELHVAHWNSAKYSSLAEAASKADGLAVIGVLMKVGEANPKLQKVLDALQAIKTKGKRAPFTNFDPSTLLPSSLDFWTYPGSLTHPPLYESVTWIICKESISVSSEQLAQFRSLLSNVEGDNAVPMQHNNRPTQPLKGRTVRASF

Carbonic anhydrase 12 = Carbonic anhydrase 12 (Homo sapiens, UniProt O43570); experiment: Inhibition of human carbonic anhydrase 12 after 6 hrs by stop-flow CO2 hydration assay
Sequence of Carbonic anhydrase 12 (O43570 whole entry): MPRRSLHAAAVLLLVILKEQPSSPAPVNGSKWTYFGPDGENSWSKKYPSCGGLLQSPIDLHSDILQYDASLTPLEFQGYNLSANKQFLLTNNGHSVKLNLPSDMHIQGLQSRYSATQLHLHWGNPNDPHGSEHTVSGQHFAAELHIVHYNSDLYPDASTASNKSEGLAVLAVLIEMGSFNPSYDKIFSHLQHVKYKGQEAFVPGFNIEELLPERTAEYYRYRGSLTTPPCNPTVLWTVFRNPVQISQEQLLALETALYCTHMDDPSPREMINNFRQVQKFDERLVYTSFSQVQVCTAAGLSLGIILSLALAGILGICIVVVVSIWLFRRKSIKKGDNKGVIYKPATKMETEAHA

Ki (Carbonic anhydrase 2)	Ki (Carbonic anhydrase 9)	Ki (Carbonic anhydrase 1)	Ki (Carbonic anhydrase 12)	SMILES
> 200000 nM	930 nM			C=CCOc1ccc2oc(=O)ccc2c1
> 200000 nM	970 nM			Cc1cc(=O)oc2cc(NC(=O)OC(C)(C)C)ccc12
> 200000 nM	730 nM	72900 nM	640 nM	C=CCOc1ccc2ccc(=O)oc2c1 [7-ALLYLOXYCOUMARIN]
> 200000 nM	920 nM			O=c1ccc2ccc(OCCO)cc2o1
> 200000 nM	390 nM			CC(=O)Nc1ccc2c(C)cc(=O)oc2c1
> 200000 nM	530 nM			Cc1ccc(S(=O)(=O)OCCOc2ccc3ccc(=O)oc3c2)cc1
> 200000 nM	210 nM			C=CCOc1cc(=O)oc2ccccc12
> 200000 nM				Cc1cc(C)cc(NC(=O)Nc2ccc3c(C)cc(=O)oc3c2)c1
> 200000 nM	780 nM			Oc1ccc2ccc(=S)oc2c1

Further lines, the molecule ahead of its results:

SMILES	Ki (Carbonic anhydrase 2)	Ki (Carbonic anhydrase 9)	Ki (Carbonic anhydrase 1)	Ki (Carbonic anhydrase 12)
C=CCOc1ccc2ccc(=S)oc2c1	> 200000 nM	3230 nM		
CC(C)(C)[Si](C)(C)Oc1ccc2oc(=S)ccc2c1	> 200000 nM	860 nM		
C=CCOc1cc(=S)oc2ccccc12	> 200000 nM			
CC(C)(C)[Si](C)(C)Oc1ccc2ccc(=S)oc2c1	> 200000 nM	960 nM		
O=c1ccc2ccc(OCCF)cc2o1	> 200000 nM	680 nM		
CC(C)(C)[Si](C)(C)Oc1ccc2oc(=O)ccc2c1		800 nM		
Oc1ccc2oc(=S)ccc2c1		800 nM		
C=CCOc1ccc2oc(=S)ccc2c1		3260 nM		
